We go through 20 compounds from patent US10435399B2, “HDAC6 inhibitory heterocyclic compound” (TAKEDA PHARMACEUTICAL COMPANY LIMITED, priority 2017, dated 2019).

SMILES strings stand for the structures.

In the assay the target is T1, HDAC6 enzyme (Homo sapiens, UniProt Q9UBN7).
T1 construct: transducing full length HDAC6 gene into Sf-9 insect cells; GST; purchased SignalChem; host or cells: Sf-9 insect cells
T1 sequence (Q9UBN7 1-1215): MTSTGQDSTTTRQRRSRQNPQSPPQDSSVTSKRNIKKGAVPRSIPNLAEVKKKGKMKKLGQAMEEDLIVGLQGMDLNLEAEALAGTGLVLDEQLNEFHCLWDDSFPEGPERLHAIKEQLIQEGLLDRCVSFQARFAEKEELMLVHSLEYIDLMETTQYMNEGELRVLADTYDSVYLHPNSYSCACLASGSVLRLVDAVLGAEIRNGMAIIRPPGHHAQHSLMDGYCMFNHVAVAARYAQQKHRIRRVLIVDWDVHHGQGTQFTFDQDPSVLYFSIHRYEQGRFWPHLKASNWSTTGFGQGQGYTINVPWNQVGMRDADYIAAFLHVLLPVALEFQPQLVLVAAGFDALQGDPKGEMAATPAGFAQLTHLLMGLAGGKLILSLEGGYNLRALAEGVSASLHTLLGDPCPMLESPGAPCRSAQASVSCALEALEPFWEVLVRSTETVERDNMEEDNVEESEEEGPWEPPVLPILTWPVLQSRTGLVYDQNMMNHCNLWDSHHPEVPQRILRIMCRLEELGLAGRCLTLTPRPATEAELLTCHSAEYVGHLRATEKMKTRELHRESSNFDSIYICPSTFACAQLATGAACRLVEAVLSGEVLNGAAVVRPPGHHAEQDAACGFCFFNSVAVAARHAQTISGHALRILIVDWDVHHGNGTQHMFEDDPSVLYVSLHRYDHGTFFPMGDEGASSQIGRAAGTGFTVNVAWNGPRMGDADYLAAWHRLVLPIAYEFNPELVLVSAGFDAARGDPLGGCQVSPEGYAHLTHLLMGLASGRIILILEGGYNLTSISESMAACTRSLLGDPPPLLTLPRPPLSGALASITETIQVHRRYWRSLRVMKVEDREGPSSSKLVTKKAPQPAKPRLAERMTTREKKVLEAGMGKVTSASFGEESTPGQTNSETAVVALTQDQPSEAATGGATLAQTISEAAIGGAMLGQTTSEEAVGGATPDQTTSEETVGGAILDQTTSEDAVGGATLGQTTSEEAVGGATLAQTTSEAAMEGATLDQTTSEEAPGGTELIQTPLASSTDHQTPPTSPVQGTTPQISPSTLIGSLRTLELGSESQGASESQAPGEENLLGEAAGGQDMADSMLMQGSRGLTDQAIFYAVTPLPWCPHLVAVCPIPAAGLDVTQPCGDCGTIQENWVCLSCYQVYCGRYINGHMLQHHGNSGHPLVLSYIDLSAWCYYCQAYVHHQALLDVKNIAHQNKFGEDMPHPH
Nature of the assay: HDAC6 enzyme inhibitory activity (HDAC-Glo I/II Assay kit). As to conditions: 10 μM; wells without enzyme = 100% inhibition; read-out: HDAC6 inhibitory rate (%) (10 μM). Format: biochemical. As to the method: HDAC6 enzyme prepared by transducing full length HDAC6 gene into Sf-9 insect cells and purifying by GST affinity column were purchased from SignalChem. Using this enzyme, HDAC6 enzyme inhibitory activities of the compound of the present invention were evaluated. Enzymes were used after preserved at −70° C. HDAC6 enzyme inhibitory activity of the compound of the present invention was measured using HDAC-Glo™ I/II Assay kit (Promega) according to the following experimental method. The test compound diluted with assay buffer (24 mM Tris-HCl (pH 7.5), 1 mM MgCl2, 0.35 mM KCl, 135 mM NaCl, 0.6 mM Glutathione, 0.01% Tween-20) was added to a 384-well plate by each 2 μL. Then, HDAC6 enzyme solution diluted with assay buffer was added thereto by each 4 μL, and the plate was incubated at room temperature for 60 min. After incubated, HDAC substrate-Developer solution prepared according to Promega protocol attached to the assay kit was added to the 384-well plate by each 2 μL, and the enzyme reaction was started. After reacting at room temperature for 20 min, luminescence level was measured using plate reader Envision (PerkinElmer). The inhibitory activity of each compound of Example was calculated as a relative activity value when luminescence level in wells without enzyme is considered as 100% inhibition.
As to `O=C(N[C@@H]1CCCC[C@H]1N1Cc2ccc(-c3nnc(C(F)F)o3)cc2C1=O)[C@H]1C[C@H]1F` (mixture of isomers) [Example 111, (1RS,2RS)-N-((1R,2R)-2-(6-(5-(difluoromethyl)-1,3,4-oxadiazol-2-yl)-1-oxo-1,3-dihydro-2H-isoindol-2-yl)cyclohexyl)-2-fluorocyclopropanecarboxamide], the inhibition at 10 µM worked out at 101%.
Take `O=C(N[C@@H]1CCCC[C@H]1N1Cc2ccc(-c3nnc(C(F)F)o3)cc2C1=O)[C@@H]1C[C@H]1F` (racemic) [Example 69, (1SR,2RS)-N-((1R,2R)-2-(6-(5-(difluoromethyl)-1,3,4-oxadiazol-2--yl)-1-oxo-1,3-dihydro-2H-isoindol-2-yl)cyclohexyl)-2-fluorocyclopropanecarboxamide]: the inhibition at 10 µM turned out to be 101%.
Under `COC(=O)N1CC[C@@H](c2ccc(F)cc2)[C@H](N2Cc3ccc(-c4nnc(C(F)F)o4)cc3C2=O)C1` (racemic) [Example 504, methyl (3SR,4SR)-3-(6-(5-(difluoro-methyl)-1,3,4-oxadiazol-2-yl)-1-oxo-1,3-dihydro-2H-isoindol-2-yl)-4-(4-fluoro-phenyl) piperidine-1-carboxylate] stands 100%.
Under `O=C1c2cc(-c3nnc(C(F)F)o3)ccc2CN1[C@@H]1CCCC[C@H]1n1cccn1` (racemic) [Example 514, 6-(5-(difluoromethyl)-1,3,4-oxadiazol-2-yl)-2-((1RS,2RS)-2-(1H-pyrazol-1-yl)cyclohexyl)isoindolin-1-one] stands 99%.
Under `O=C1c2cc(-c3nnc(C(F)F)o3)cnc2CN1[C@@H]1CCCC[C@H]1n1cccn1` (racemic) [Example 526, 3-(5-(difluoromethyl)-1,3,4-oxadiazol-2-yl)-6-((1RS,2RS)-2-(1H-pyrazol-1-yl)cyclohexyl)-6,7-dihydro-5H-pyrrolo[3,4-b]pyridin-5-one] stands 101%; under `O=C1c2cc(-c3nnc(C(F)F)o3)ccc2CN1[C@H]1CCCC[C@H]1n1cccn1` (racemic) [Example 527, 6-(5-(difluoromethyl)-1,3,4-oxadiazol-2-yl)-2-((1SR,2RS)-2-(1H-pyrazol-1-yl)cyclohexyl)isoindolin-1-one], 99%; under `O=C1c2cc(-c3nnc(C(F)F)o3)cnc2CN1[C@@H]1CCCC[C@H]1Oc1ccc(F)cc1` (racemic) [Example 535, 3-(5-(difluoromethyl)-1,3,4-oxadiazol-2-yl)-6-((1RS,2RS)-2-(4-fluorophenoxy)cyclohexyl)-6,7-dihydro-5H-pyrrolo[3,4-b]pyridin-5-one], 99%.
On to `O=C1c2cc(-c3nnc(C(F)F)o3)cnc2CN1[C@H]1CCCC[C@H]1n1cccn1` (racemic) [Example 541, 3-(5-(difluoromethyl)-1,3,4-oxadiazol-2-yl)-6-((1SR,2RS)-2-(1H-pyrazol-1-yl)cyclohexyl)-6,7-dihydro-5H-pyrrolo[3,4-b]pyridin-5-one], for which the inhibition at 10 µM is 99%.
Under `O=C(C(F)F)N1CC[C@@H](c2ccc(F)cc2)[C@H](N2Cc3ccc(-c4nnc(C(F)F)o4)cc3C2=O)C1` (racemic) [Example 546, 2-((3SR,4SR)-1-(difluoroacetyl)-4-(4-fluorophenyl)piperidin-3-yl)-6-(5-(difluoromethyl)-1,3,4-oxadiazol-2-yl)isoindolin-1-one] stands 100%; under `O=C1c2cc(-c3nnc(C(F)F)o3)ccc2CN1[C@@H]1CN(C(=O)C(F)(F)C(F)(F)F)CC[C@H]1c1ccc(F)cc1` (racemic) [Example 548, 6-(5-(difluoromethyl)-1,3,4-oxadiazol-2-yl)-2-((3SR,4SR)-4-(4-fluorophenyl)-1-(2,2,3,3,3-pentafluoropropanoyl)piperidin-3-yl)isoindolin-1-one], 100%.
Under `O=C1c2cc(-c3nnc(C(F)F)o3)ccc2CN1[C@@H]1CCCC[C@H]1c1ncco1` (racemic) [Example 549, 6-(5-(difluoromethyl)-1,3,4-oxadiazol-2-yl)-2-((1RS,2RS)-2-(1,3-oxazol-2-yl)cyclohexyl)isoindolin-1-one] stands 100%.
Under `N#C[C@@H]1CCCC[C@H]1N1Cc2ccc(-c3nnc(C(F)F)o3)cc2C1=O` (racemic) [Example 556, (1RS,2RS)-2-(6-(5-(difluoromethyl)-1,3,4-oxadiazol-2-yl)-1-oxo-1,3-dihydro-2H-isoindol-2-yl)cyclohexanecarbonitrile] stands 97%.
In the case of `O=C1c2cc(-c3nnc(C(F)F)o3)ccc2CN1[C@@H]1CCCC[C@H]1c1noc(C2CC2)n1` (racemic) [Example 558, 2-((1RS,2RS)-2-(5-cyclopropyl-1,2,4-oxadiazol-3-yl)cyclohexyl)-6-(5-(difluoromethyl)-1,3,4-oxadiazol-2-yl)isoindolin-1-one], the inhibition at 10 µM was found to be 99%.
Under `O=C1c2cc(-c3nnc(C(F)F)o3)ccc2CN1[C@@H]1CCCC[C@H]1Oc1cncc(F)c1` (racemic) [Example 559, 6-(5-(difluoromethyl)-1,3,4-oxadiazol-2-yl)-2-((1RS,2RS)-2-((5-fluoropyridin-3-yl)oxy)cyclohexyl)isoindolin-1-one] stands 100%; under `O=C1c2cc(-c3nnc(C(F)F)o3)ccc2CN1[C@@H]1CCCC[C@H]1c1nc(C2CC2)no1` (racemic) [Example 561, 2-((1RS,2RS)-2-(3-cyclopropyl-1,2,4-oxadiazol-5-yl)cyclohexyl)-6-(5-(difluoromethyl)-1,3,4-oxadiazol-2-yl)isoindolin-1-one], 100%; under `CC(C)(C)OC(=O)N1CCC[C@H](N2Cc3ccc(-c4nnc(C(F)F)o4)cc3C2=O)[C@H]1c1ccc(F)cc1` (racemic) [Example 574, tert-butyl (2RS,3SR)-3-(6-(5-(difluoromethyl)-1,3,4-oxadiazol-2-yl)-1-oxo-1,3-dihydro-2H-isoindol-2-yl)-2-(4-fluorophenyl)piperidine-1-carboxylate], 100%.
Under `O=C1c2cc(-c3nnc(C(F)F)o3)ccc2CN1[C@H]1CCCN[C@@H]1c1ccc(F)cc1` (racemic) [Example 575, 6-(5-(difluoromethyl)-1,3,4-oxadiazol-2-yl)-2-((2RS,3SR)-2-(4-fluorophenyl)piperidin-3-yl)isoindolin-1-one] stands 100%.
Under `CC(F)(F)C(=O)N1CCC[C@H](N2Cc3ccc(-c4nnc(C(F)F)o4)cc3C2=O)[C@H]1c1ccc(F)cc1` (racemic) [Example 576, 6-(5-(difluoromethyl)-1,3,4-oxadiazol-2-yl)-2-((2RS,3SR)-1-(2,2-difluoropropanoyl)-2-(4-fluorophenyl)piperidin-3-yl)isoindolin-1-one] stands 99%.
For the compound `O=C1c2cc(-c3nnc(C(F)F)o3)ccc2CN1[C@H]1CCCN(C(=O)C(F)(F)C(F)(F)F)[C@@H]1c1ccc(F)cc1` (racemic) [Example 577, 6-(5-(difluoromethyl)-1,3,4-oxadiazol-2-yl)-2-((2RS,3SR)-2-(4-fluorophenyl)-1-(2,2,3,3,3-pentafluoropropanoyl)piperidin-3-yl)isoindolin-1-one], the inhibition at 10 µM was 97%.
Under `COC(=O)N1CCC[C@H](N2Cc3ccc(-c4nnc(C(F)F)o4)cc3C2=O)[C@H]1c1ccc(F)cc1` (racemic) [Example 578, methyl (2RS,3SR)-3-(6-(5-(difluoromethyl)-1,3,4-oxadiazol-2-yl)-1-oxo-1,3-dihydro-2H-isoindol-2-yl)-2-(4-fluorophenyl)piperidine-1-carboxylate] stands 100%.
